Assay results reported in patent US20130065227A1, “METHODS OF INCREASING MACROPINOCYTOSIS IN CANCER CELLS” (priority 2010, published 2013).

Columns and labels:
DU145 cells [1] = experiment: Uptake of fluorophore-labeled oligonucleotides by flow cytometry; format: cell-based; settings: 10 μM
Experimental: (§1) FIG. 1 are graphs showing that AS1411 cell internalization is an active process. Cells were plated 18 h before uptake analysis. After incubation as described, cells were washed with ice-cold PBS, incubated with 1 μg/ml 7-AAD, harvested and resuspended in 1% paraformaldehyde containing 2 μg/ml actinomycin D, then analyzed by flow cytometry. (Panel A) DU145 cells were incubated at 37° C. with fresh complete DMEM medium containing 10 μM FL-AS1411 (black line) or 10 μM FL-CRO (gray line) for the time indicated. (Panel B) DU145 cells were incubated for 2 h at 37° C. in complete or serum-free DMEM medium containing 10 μM FL-AS1411, or 10 μM FL-CRO, or no oligonucleotide. (Panel C) Various cell lines were incubated with 10 μM FL-AS1411 (black outline histogram), 10 μM FL-CRO (gray outline histogram) or without DNA (solid gray histogram) at 37° C. or 4° C. for 2 h. All experiments were repeated at least three times. Data are mean of three independent samples; bars, SE; *(p<0.05).
FIG. 2 are graphs showing that AS1411 is internalized by different endocytic mechanisms in DU145 cancer cells and in non-malignant Hs27 cells. DU145 or Hs27 cells were plated 18 h before uptake analysis. Cells were pre-treated as described with inhibitor (gray histogram) or the corresponding vehicle control (black histogram) before addition of 10 μM FL-AS1411 and incubation at 37° C. for 2 h. After incubation, cells were harvested and analyzed by flow cytometry. Pre-treatment conditions were at 37° C. with: (Panel A) 5 μM Cytochalasin D for 30 min; (Panel B) 80 μM Dynasore for 30 min; or (Panel C) 3 mM amiloride for 1 h. All experiments were repeated at least three times and representative data are shown. Solid gray histograms represent background autofluorescence of unstained cells.
DU145 cells were transfected for 48 h without siRNA (mock, M), or with 30 nM of one of three different nucleolin siRNAs (NCL1, NCL2, NCL3) or a control siRNA (scramble, S), or contransfected with 10 nM of each nucleolin siRNAs (mix). (Panel A) Cells were lysed and total cell lyses were analyzed by Western blotting using the antibodies shown. (Panel B) Cell-surface proteins from intact transfected DU145 cells were labeled covalently with membrane-impermeable biotinylating agent. Cells were lysed, then biotinylated plasma membrane proteins were captured with streptavidin-agarose beads and analyzed by blotting with anti-nucleolin antibody (upper panel). After stripping, the membrane was reprobed with antibodies for a plasma membrane marker (anti-pan Cadherin) and a nuclear marker (anti-histone 3) to confirm the fractionation. Total lysate (Lys) was used as control. (Panel C) The medium of transfected cells was replaced by fresh complete DMEM medium containing no oligonucleotide (gray dashed histogram) or 10 μM FL-CRO (gray solid line histogram) or 10 μM FL-AS1411 (black solid line histogram) and incubated at 37° C. for 2 h. After incubation, cells were harvested and analyzed by flow cytometry.
DU145 cells were plated 18 hr before uptake analysis. Cell medium was changed with fresh complete DMEM medium containing different concentrations of FL-AS1411 (black line) or FL-CRO (gray line), and incubated at 37° C. for 2 hrs. After incubation, cells were harvested and analyzed by flow cytometry.
FIG. 9 are graphs showing the effects of inhibitors on various endocytic pathways. DU145 or Hs27 cells were plated 18 hr before uptake analysis. (Panel A) DU145 cells were pre-treated with dynamin inhibitor, […] Dynasore (black histogram) or DMSO (gray histogram) for 30 min at 37° C. After pre-treatment, cells were treated with […] transferrin conjugated with Alexa Fluor 488 for 30 min at 37° C. (Panel B) DU145 and Hs27 cells were pre-treated with 3 mM amiloride (black histogram) or vehicle (serum-free medium, gray histogram) for 1 h at 37° C. After pre-treatment, FL-CRO was added at a concentration of 10 μM and incubated at 37° C. for 2 h. After incubation, cells were harvested and analyzed by FACS. […]

Hs27 cells = experiment: Confocal microscopy localization and co-localization; format: cell-based, human; settings: 10 μM, 0.2 mg/ml dextran-10K, 2 h at 37° C.
Experimental: (§2) FIG. 3 are photographs showing that AS1411 co-localizes with the macropinocytic marker, dextran. DU145 or Hs27 cells were incubated with the reagents indicated, then washed and fixed. Nuclei were stained with DAPI (blue). The distribution of markers was visualized by confocal microscopy and fluorescent images were overlaid to determine co-localization as indicated by the yellow color. (Panel A) 10 μM AS1411 labeled with Alexa Fluor 488 (green) and 0.2 mg/ml dextran-10K, macropinocytic marker, labeled with Alexa Fluor 594 (red) for 2 h at 37° C. (Panel B) Experiments similar to those in Panel A but using FL-CRO in place of FL-AS1411. (Panel C) Cells incubated with 5 μg/ml transferrin labeled with Alexa Fluor 488 (green) and 0.2 mg/ml dextran-10K labeled with Alexa Fluor 594 (red) for 30 min at 37° C. (Panel D) DU145 cells incubated with 5 μg/ml transferrin labeled with Alexa Fluor 594 (red) and 10 μM AS1411 labeled with Alexa Fluor 488 (green) for 30 min at 37° C. Scale bars, 10 μm.
Cells (4×10^4) in fresh supplemented culture medium were plated on 18 mm diameter glass cover slips for 18 h. The media was removed and replaced with serum-free medium containing 10 μM oligodeoxynucleotide, dextran-10K, or transferrin and incubated as describe in the Description of the Drawings. […]

[2] = test system: cancer cells (DU145, HeLa, MDA-MB-231) and non-malignant Hs27 skin fibroblasts; experiment: Temperature-dependence of oligonucleotide uptake by flow cytometry; format: cell-based; settings: 10 μM, 37° C. or 4° C. for 2 h, all cell types
Experimental: as §1, with “*(p<0.05). […]” for “*(p<0.05).”
To determine whether AS1411 uptake occurs through an active uptake process, the temperature-dependence of AS1411 uptake in cancer cells (DU145, HeLa, MDA-MB-231) and non-malignant Hs27 skin fibroblasts was evaluated using flow cytometry. […]

DU145 cells [3] = experiment: Confocal microscopy localization and co-localization; format: cell-based
Experimental: as §2
Cells (4×10^4) in fresh supplemented culture medium were plated on 18 mm diameter glass cover slips for 18 h. The media was removed and replaced with serum-free medium containing 10 μM oligodeoxynucleotide, dextran-10K, or transferrin and incubated as describe in the Description of the Drawings. After incubation, cells were washed 3 times with ice-cold PBS, fixed in 4% paraformaldehyde in PBS for 30 min at room temperature, and washed three times with PBS. After washing, the cover slips were mounted on glass slides with ProLong Antifade (Molecular Probes) according to the manufacturer's directions to inhibit photobleaching. Immunofluorescence was documented with an LSM 510 inverted confocal laser-scanning microscope (Carl Zeiss, Oberkochen, Germany) equipped with an Omnichrome argon-krypton laser. Images were obtained with a Zeiss Plan-Apo 63× oil immersion objective (1.4 NA).

5′-Fluor-d(TTTGGTGGTGGTGGTTGTGGTGGTGGTGG) [FL-AS1411]
earliest time at which uptake was detected (DU145 cells [1]; 37° C., complete DMEM medium): 5 min | time after which uptake is decreasing (DU145 cells [1]; 37° C., complete DMEM medium): > 8 h | serum dependence of uptake (DU145 cells [1]; 2 h at 37° C., complete or serum-free DMEM medium): independent of the presence of serum | co-localization with the macropinocytic marker, dextran (Hs27 cells): not in Hs27 cells | temperature dependence of uptake [2]: strong temperature dependence | co-localization with the macropinocytic marker, dextran (DU145 cells [3]; 10 μM, 0.2 mg/ml dextran-10K, 2 h at 37° C.): strongly co-localized | subcellular localization (DU145 cells [3]; confocal microscopy, cancer and non-malignant cells): localized in confined structures in the cytoplasm
